# Earlier results as cited in patent US20110118355A1, “TREATMENT OF MIGRAINE HEADACHES USING ANTIESTROGENS” (priority 2007, published 2011).
# Details: one person, no aura, headache accompanied by fever; Letter to the Editor, Headache 32:315 (1992)
structure (smiles),measurement,value
CCN(CC)CCOc1ccc(C(=C(Cl)c2ccccc2)c2ccccc2)cc1 [clomiphene],clinical benefit in headaches diagnosed as common migraine,benefited
